Experimental data as given in paper PMC4966941 (PLoS ONE, 2016).
Where a name gives a salt, the structure may show the parent alone.

Test: In-vivo pharmacokinetic study: vancomycin in tibia, muscle and plasma after intramedullary delivery (HPLC)
Conditions: rat; for Mean vancomycin concentration in gastrocnemius muscle (ug drug/g tissue, AVE) / Mean vancomycin concentration in tibia (ug drug/g tissue, AVE): single 25 mg/Kg intramedullary dose to tibia, mean of n = 4; for Vancomycin in muscle, ug drug/g tissue / Vancomycin in plasma: single rat
[1] = single 25 mg/Kg intramedullary dose, 4 h, HPLC, sample 1-1
[2] = single 25 mg/Kg intramedullary dose, 4 h, HPLC, sample 1-3
[3] = single 25 mg/Kg intramedullary dose, 4 h, HPLC, sample 1-4
[4] = single 25 mg/Kg intramedullary dose, 6 h, HPLC, sample 2-1
[5] = single 25 mg/Kg intramedullary dose, 6 h, HPLC, sample 2-2
[6] = single 25 mg/Kg intramedullary dose, 6 h, HPLC, sample 2-3
[7] = single 25 mg/Kg intramedullary dose, 6 h, HPLC, sample 2-4
[8] = single 25 mg/Kg intramedullary dose, 12 h, HPLC, sample 3-1
[9] = single 25 mg/Kg intramedullary dose, 12 h, HPLC, sample 3-2
[10] = single 25 mg/Kg intramedullary dose, 12 h, HPLC, sample 3-3
[11] = single 25 mg/Kg intramedullary dose, 12 h, HPLC, sample 3-4
[12] = single 25 mg/Kg intramedullary dose, 24 h, HPLC, sample 4-1
[13] = single 25 mg/Kg intramedullary dose, 24 h, HPLC, sample 4-2
[14] = single 25 mg/Kg intramedullary dose, 24 h, HPLC, sample 4-3
[15] = single 25 mg/Kg intramedullary dose, 24 h, HPLC, sample 4-4
[16] = single 25 mg/Kg intramedullary dose, 48 h, HPLC, sample 5-1
[17] = single 25 mg/Kg intramedullary dose, 48 h, HPLC, sample 5-2
[18] = single 25 mg/Kg intramedullary dose, 48 h, HPLC, sample 5-4
[19] = single 25 mg/Kg intramedullary dose, 72 h, HPLC, sample 6-2
[20] = single 25 mg/Kg intramedullary dose, 72 h, HPLC, sample 6-3
[21] = single 25 mg/Kg intramedullary dose, 72 h, HPLC, sample 6-4
[22] = single 25 mg/Kg intramedullary dose, 96 h, HPLC, sample 7-1
[23] = single 25 mg/Kg intramedullary dose, 96 h, HPLC, sample 7-2
[24] = single 25 mg/Kg intramedullary dose, 96 h, HPLC, sample 7-3
[25] = single 25 mg/Kg intramedullary dose, 96 h, HPLC, sample 7-4
[26] = single 25 mg/Kg intramedullary dose, HPLC

CN[C@H](CC(C)C)C(=O)N[C@H]1C(=O)N[C@@H](CC(N)=O)C(=O)N[C@H]2C(=O)N[C@H]3C(=O)N[C@H](C(=O)N[C@H](C(=O)O)c4cc(O)cc(O)c4-c4cc3ccc4O)[C@H](O)c3ccc(c(Cl)c3)Oc3cc2cc(c3O[C@@H]2O[C@H](CO)[C@@H](O)[C@H](O)[C@H]2O[C@H]2C[C@](C)(N)[C@H](O)[C@H](C)O2)Oc2ccc(cc2Cl)[C@H]1O [vancomycin, vancomycin hydrochloride]
Therapeutic or supra-therapeutic bone concentrations of vancomycin (local delivery to the medullary canal): > 100 µg/mL | Time the infused drug stays in the bone (single 25 mg/Kg intramedullary dose): at least 96 hours | Mean vancomycin concentration in gastrocnemius muscle (ug drug/g tissue, AVE) (4 h, HPLC): 167.793 µg/g | Mean vancomycin concentration in tibia (ug drug/g tissue, AVE) (4 h, HPLC): 818.068 µg/g | Mean vancomycin concentration in gastrocnemius muscle (ug drug/g tissue, AVE) (6 h, HPLC): 90.1696 µg/g | Mean vancomycin concentration in tibia (ug drug/g tissue, AVE) (6 h, HPLC): 784.095 µg/g | Mean vancomycin concentration in gastrocnemius muscle (ug drug/g tissue, AVE) (12 h, HPLC): 29.0616 µg/g | Mean vancomycin concentration in tibia (ug drug/g tissue, AVE) (12 h, HPLC): 359.143 µg/g | Mean vancomycin concentration in gastrocnemius muscle (ug drug/g tissue, AVE) (24 h, HPLC): 0 µg/g | Mean vancomycin concentration in gastrocnemius muscle (ug drug/g tissue, AVE) (48 h, HPLC): 0.99 µg/g | Mean vancomycin concentration in tibia (ug drug/g tissue, AVE) (48 h, HPLC): 515.375 µg/g | Mean vancomycin concentration in gastrocnemius muscle (ug drug/g tissue, AVE) (72 h, HPLC): 0.6895 µg/g | Mean vancomycin concentration in tibia (ug drug/g tissue, AVE) (72 h, HPLC): 130.325 µg/g | Mean vancomycin concentration in gastrocnemius muscle (ug drug/g tissue, AVE) (96 h, HPLC): 1.205 µg/g | Mean vancomycin concentration in tibia (ug drug/g tissue, AVE) (96 h, HPLC): 110.095 µg/g | Vancomycin in muscle, ug drug/g tissue [1]: 0 ug drug/g tissue | Vancomycin in plasma [1]: 2.855 µg/mL | Vancomycin in muscle, ug drug/g tissue (single 25 mg/Kg intramedullary dose, 4 h, HPLC, sample 1-2): 0 ug drug/g tissue | Vancomycin in muscle, ug drug/g tissue [2]: 0 ug drug/g tissue | Vancomycin in plasma [2]: 2.69 µg/mL | Vancomycin in muscle, ug drug/g tissue [3]: 671.173 ug drug/g tissue | Vancomycin in plasma [3]: 8.576 µg/mL | Vancomycin in muscle, ug drug/g tissue [4]: 0 ug drug/g tissue | Vancomycin in plasma [4]: 0.1311 µg/mL | Vancomycin in muscle, ug drug/g tissue [5]: 359.037 ug drug/g tissue | Vancomycin in plasma [5]: 3.7319 µg/mL | Vancomycin in muscle, ug drug/g tissue [6]: 0 ug drug/g tissue | Vancomycin in plasma [6]: -0.165 µg/mL | Vancomycin in muscle, ug drug/g tissue [7]: 1.642 ug drug/g tissue | Vancomycin in plasma [7]: 0.01263 µg/mL | Vancomycin in muscle, ug drug/g tissue [8]: 0 ug drug/g tissue | Vancomycin in plasma [8]: -0.165 µg/mL | Vancomycin in muscle, ug drug/g tissue [9]: 114.004 ug drug/g tissue | Vancomycin in plasma [9]: 0.9602 µg/mL | Vancomycin in muscle, ug drug/g tissue [10]: 2.243 ug drug/g tissue | Vancomycin in plasma [10]: 1.434 µg/mL | Vancomycin in muscle, ug drug/g tissue [11]: 0 ug drug/g tissue | Vancomycin in plasma [11]: 0.747 µg/mL | Vancomycin in muscle, ug drug/g tissue [12]: 0 ug drug/g tissue | Vancomycin in plasma [12]: 0.2258 µg/mL | Vancomycin in muscle, ug drug/g tissue [13]: 0 ug drug/g tissue | Vancomycin in plasma [13]: 0.9365 µg/mL | Vancomycin in muscle, ug drug/g tissue [14]: 0 ug drug/g tissue | Vancomycin in plasma [14]: 0.3917 µg/mL | Vancomycin in muscle, ug drug/g tissue [15]: 0 ug drug/g tissue | Vancomycin in plasma [15]: 0.6404 µg/mL | Vancomycin in muscle, ug drug/g tissue [16]: 0 ug drug/g tissue | Vancomycin in plasma [16]: 0.8299 µg/mL | Vancomycin in muscle, ug drug/g tissue [17]: 0 ug drug/g tissue | Vancomycin in plasma [17]: 0.7352 µg/mL | Vancomycin in muscle, ug drug/g tissue (single 25 mg/Kg intramedullary dose, 48 h, HPLC, sample 5-3): 0 ug drug/g tissue | Vancomycin in muscle, ug drug/g tissue [18]: 3.96 ug drug/g tissue | Vancomycin in plasma [18]: 0.593 µg/mL | Vancomycin in muscle, ug drug/g tissue (single 25 mg/Kg intramedullary dose, 72 h, HPLC, sample 6-1): 0 ug drug/g tissue | Vancomycin in muscle, ug drug/g tissue [19]: 0 ug drug/g tissue | Vancomycin in plasma [19]: -0.03475 µg/mL | Vancomycin in muscle, ug drug/g tissue [20]: 2.758 ug drug/g tissue | Vancomycin in plasma [20]: 0.04816 µg/mL | Vancomycin in muscle, ug drug/g tissue [21]: 0 ug drug/g tissue | Vancomycin in plasma [21]: 0.2495 µg/mL | Vancomycin in muscle, ug drug/g tissue [22]: 0 ug drug/g tissue | Vancomycin in plasma [22]: -0.165 µg/mL | Vancomycin in muscle, ug drug/g tissue [23]: 0 ug drug/g tissue | Vancomycin in plasma [23]: -0.165 µg/mL | Vancomycin in muscle, ug drug/g tissue [24]: 4.819 ug drug/g tissue | Vancomycin in plasma [24]: -0.165 µg/mL | Vancomycin in muscle, ug drug/g tissue [25]: 0 ug drug/g tissue | Vancomycin in plasma [25]: -0.165 µg/mL | Vancomycin concentration in the gastrocnemius muscle, first 4h post administration [26]: > 100 µg/g | Vancomycin level in the gastrocnemius muscle by 24h [26]: near undetectable levels | Vancomycin concentration detected in the tibia over the 96-h study period (single 25 mg/Kg intramedullary dose, HPLC of pulverized tissue): > 100 µg/g | Vancomycin detected in the blood plasma for the entirety of the study (single 25 mg/Kg intramedullary dose, HPLC, 96 h study): Little to no vancomycin was detected | Time a supratherapeutic antimicrobial dose (>100 μg/mL) was maintained in the surrounding muscle (single 25 mg/Kg intramedullary dose, n = 4 per time point): < 6 h
